Reference: PubChem BioAssay AID1919005 (Molecular Pharmacology Branch, DTP, NCI, 2023)
pIC50: −log10 of the molar value. Several values for one entry are separate records, joined by “and”; a condition that tells them apart may be missing. Equal entries are not always repeated.

System: 855422-203-R-J1-PDC complex spheroid growth
Assay: Anticancer human tumor 855422-203-R-J1-PDC patient-derived bladder carcinoma cell line growth inhibition [AhR]
Conditions: for viability, T/C: stronger effect = lower value
Method in brief: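 Spheroids combined tumor cells with HUVEC endothelial cells and human MSCs as stroma. AhR antagonists were paired with standard or investigational drugs, each dosed in half-log steps down from near clinical Cmax, or from 10 microM where Cmax was unknown.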

[1] = curve of first compound, second compound 0.1 µM
[2] = curve of first compound, second compound 0.316 µM
[3] = curve of first compound, second compound 1 µM
[4] = curve of first compound, second compound 3.16 µM
[5] = curve of first compound, second compound 10 µM
[6] = second compound 0.1 µM, first compound 0.0316 µM
[7] = second compound 0.1 µM, first compound 0.1 µM
[8] = second compound 0.1 µM, first compound 0.316 µM
[9] = second compound 0.1 µM, first compound 1 µM
[10] = second compound 0.1 µM, first compound 3.16 µM
[11] = second compound 0.1 µM, first compound 10 µM
[12] = second compound 0.316 µM, first compound 0.0316 µM
[13] = second compound 0.316 µM, first compound 0.1 µM
[14] = second compound 0.316 µM, first compound 0.316 µM
[15] = second compound 0.316 µM, first compound 1 µM
[16] = second compound 0.316 µM, first compound 3.16 µM
[17] = second compound 0.316 µM, first compound 10 µM
[18] = second compound 1 µM, first compound 0.0316 µM
[19] = second compound 1 µM, first compound 0.1 µM
[20] = second compound 1 µM, first compound 0.316 µM
[21] = second compound 1 µM, first compound 1 µM
[22] = second compound 1 µM, first compound 3.16 µM
[23] = second compound 1 µM, first compound 10 µM
[24] = second compound 3.16 µM, first compound 0.0316 µM
[25] = second compound 3.16 µM, first compound 0.1 µM
[26] = second compound 3.16 µM, first compound 0.316 µM
[27] = second compound 3.16 µM, first compound 1 µM
[28] = second compound 3.16 µM, first compound 3.16 µM
[29] = second compound 3.16 µM, first compound 10 µM
[30] = second compound 10 µM, first compound 0.0316 µM
[31] = second compound 10 µM, first compound 0.1 µM
[32] = second compound 10 µM, first compound 0.316 µM
[33] = second compound 10 µM, first compound 1 µM
[34] = second compound 10 µM, first compound 3.16 µM
[35] = second compound 10 µM, first compound 10 µM
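Further: spheroids exposed to agents for seven days before readout.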
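Wherever viability, T/C is given: percent of DMSO vehicle control luminescence viability.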

| Compound | pIC50 [1] | pIC50 [2] | pIC50 [3] | pIC50 [4] | pIC50 [5] | viability, T/C [6] [%] | viability, T/C [7] [%] | viability, T/C [8] [%] | viability, T/C [9] [%] | viability, T/C [10] [%] | viability, T/C [11] [%] | viability, T/C [12] [%] | viability, T/C [13] [%] | viability, T/C [14] [%] | viability, T/C [18] [%] | viability, T/C [19] [%] | viability, T/C [24] [%] | viability, T/C [25] [%] | viability, T/C [30] [%] | viability, T/C [31] [%] | also measured |
| --- | --- | --- | --- | --- | --- | --- | --- | --- | --- | --- | --- | --- | --- | --- | --- | --- | --- | --- | --- | --- | --- |
| COc1ccc([C@@H](O)c2cc(-c3ncnc4cc(N5CCOCC5)ccc34)c(F)cc2Cl)nn1 |  |  |  |  |  |  |  |  |  |  |  |  |  |  |  |  |  |  |  |  | viability, T/C (compound 0.0316 µM): 115% and 108% (2×); viability, T/C (compound 0.1 µM): 97.6% and 101% and 89.4%; viability, T/C (compound 0.316 µM): 102% and 105% and 88.9%; viability, T/C (compound 1 µM): 89.7% and 98.2% and 82%; viability, T/C (compound 3.16 µM): 79% and 89.1% and 76.9%; viability, T/C (compound 10 µM): 52.3% and 71.5% and 57.8%; pIC50 (curve of compound): < 5.00 |
| O=C(C=Cc1cccc(S(=O)(=O)Nc2ccccc2)c1)NO + CC(CO)NC(=O)c1cc(-c2ccc(Cl)cc2)nn(-c2cnn(C)c2)c1=O | 5.67 | 5.71 | 5.69 | 5.81 | 5.76 | 87.4 | 88.6 | 91.1 | 71.7 | 38.5 | 1.42 | 89.1 | 88.2 | 92.7 | 93.7 | 87.8 | 83.2 | 86.8 | 87.2 | 90.3 | viability, T/C [15]: 70.6%; viability, T/C [16]: 34.7%; viability, T/C [17]: 0.82%; viability, T/C [20]: 86.6%; viability, T/C [21]: 79.8%; viability, T/C [22]: 31.7%; viability, T/C [23]: 0.88%; viability, T/C [26]: 90.7%; viability, T/C [27]: 60.3%; viability, T/C [28]: 27.9%; viability, T/C [29]: 0.71%; viability, T/C [32]: 79.4%; viability, T/C [33]: 67.3%; viability, T/C [34]: 31.8%; viability, T/C [35]: 0.94% |
| O=C(c1cc(Cc2n[nH]c(=O)c3ccccc23)ccc1F)N1CCN(C(=O)C2CC2)CC1 + CC(CO)NC(=O)c1cc(-c2ccc(Cl)cc2)nn(-c2cnn(C)c2)c1=O | < 5.00 | < 5.00 | < 5.00 | < 5.00 | < 5.00 | 105 | 107 | 117 | 110 | 98.8 | 95.2 | 118 | 107 | 110 | 120 | 115 | 107 | 112 | 109 | 115 | viability, T/C [15]: 106%; viability, T/C [16]: 105%; viability, T/C [17]: 97.9%; viability, T/C [20]: 115%; viability, T/C [21]: 108%; viability, T/C [22]: 113%; viability, T/C [23]: 101%; viability, T/C [26]: 105%; viability, T/C [27]: 105%; viability, T/C [28]: 96.9%; viability, T/C [29]: 106%; viability, T/C [32]: 98%; viability, T/C [33]: 97.1%; viability, T/C [34]: 105%; viability, T/C [35]: 102% |

Now from value to compound, other results behind:

| pIC50 [1] | pIC50 [2] | pIC50 [3] | pIC50 [4] | pIC50 [5] | Compound | viability, T/C [6] [%] | viability, T/C [7] [%] | viability, T/C [8] [%] | viability, T/C [9] [%] | viability, T/C [10] [%] | viability, T/C [11] [%] | viability, T/C [12] [%] | viability, T/C [13] [%] | viability, T/C [14] [%] | viability, T/C [18] [%] | viability, T/C [19] [%] | viability, T/C [24] [%] | viability, T/C [25] [%] | viability, T/C [30] [%] | viability, T/C [31] [%] | also measured |
| --- | --- | --- | --- | --- | --- | --- | --- | --- | --- | --- | --- | --- | --- | --- | --- | --- | --- | --- | --- | --- | --- |
| < 5.00 | < 5.00 | < 5.00 | < 5.00 | 5.21 | COc1ccc([C@@H](O)c2cc(-c3ncnc4cc(N5CCOCC5)ccc34)c(F)cc2Cl)nn1 + Cc1ccccc1N=Nc1ccc(NC(=O)c2ccnn2C)c(C)c1 | 99.2 | 108 | 98.3 | 96.5 | 87.3 | 71.3 | 107 | 111 | 99.8 | 107 | 102 | 95.9 | 100 | 87.8 | 91.6 | viability, T/C [15]: 102%; viability, T/C [16]: 90.1%; viability, T/C [17]: 70.3%; viability, T/C [20]: 106%; viability, T/C [21]: 96.9%; viability, T/C [22]: 87.8%; viability, T/C [23]: 63.1%; viability, T/C [26]: 95.7%; viability, T/C [27]: 98.6%; viability, T/C [28]: 77.1%; viability, T/C [29]: 54.8%; viability, T/C [32]: 86.1%; viability, T/C [33]: 86%; viability, T/C [34]: 62%; viability, T/C [35]: 41.4% |
| < 5.00 | < 5.00 | < 5.00 | < 5.00 | 5.10 | CC1COCCN1c1cc(C2(S(C)(=N)=O)CC2)nc(-c2ccnc3[nH]ccc23)n1 (configuration not stated) + Cc1ccccc1N=Nc1ccc(NC(=O)c2ccnn2C)c(C)c1 | 95.5 | 95.4 | 97.4 | 99.4 | 110 | 54.9 | 105 | 99.2 | 104 | 102 | 98.4 | 91 | 91.4 | 83.5 | 79 | viability, T/C [15]: 101%; viability, T/C [16]: 121%; viability, T/C [17]: 55.4%; viability, T/C [20]: 95%; viability, T/C [21]: 106%; viability, T/C [22]: 125%; viability, T/C [23]: 60%; viability, T/C [26]: 92.9%; viability, T/C [27]: 102%; viability, T/C [28]: 109%; viability, T/C [29]: 50.8%; viability, T/C [32]: 83.6%; viability, T/C [33]: 93.3%; viability, T/C [34]: 82%; viability, T/C [35]: 41.4% |
| < 7.00 | < 7.00 | < 7.00 | < 7.00 | < 7.00 | Cn1ncnc1C1c2n[nH]c(=O)c3cc(F)cc(c23)NC1c1ccc(F)cc1 (configuration not stated) + Cc1ccccc1N=Nc1ccc(NC(=O)c2ccnn2C)c(C)c1 | 93.8 | 100 |  |  |  |  | 92.6 | 90 |  | 98.2 | 96.3 | 87.4 | 91.8 | 76.2 | 77 | viability, T/C (second compound 0.1 µM, first compound 0.000316 µM): 102%; viability, T/C (second compound 0.1 µM, first compound 0.001 µM): 96%; viability, T/C (second compound 0.1 µM, first compound 0.00316 µM): 102%; viability, T/C (second compound 0.1 µM, first compound 0.01 µM): 100%; viability, T/C (second compound 0.316 µM, first compound 0.000316 µM): 106%; viability, T/C (second compound 0.316 µM, first compound 0.001 µM): 96.4%; viability, T/C (second compound 0.316 µM, first compound 0.00316 µM): 95.7%; viability, T/C (second compound 0.316 µM, first compound 0.01 µM): 96.1%; viability, T/C (second compound 1 µM, first compound 0.000316 µM): 104%; viability, T/C (second compound 1 µM, first compound 0.001 µM): 105%; viability, T/C (second compound 1 µM, first compound 0.00316 µM): 97.7%; viability, T/C (second compound 1 µM, first compound 0.01 µM): 103%; viability, T/C (second compound 3.16 µM, first compound 0.000316 µM): 88.4%; viability, T/C (second compound 3.16 µM, first compound 0.001 µM): 97.3%; viability, T/C (second compound 3.16 µM, first compound 0.00316 µM): 93.9%; viability, T/C (second compound 3.16 µM, first compound 0.01 µM): 90.8%; viability, T/C (second compound 10 µM, first compound 0.000316 µM): 80.1%; viability, T/C (second compound 10 µM, first compound 0.001 µM): 78.5%; viability, T/C (second compound 10 µM, first compound 0.00316 µM): 82.5%; viability, T/C (second compound 10 µM, first compound 0.01 µM): 81.6% |
